Structures can show the parent of a compound that is named as a salt.
Target: SSTR5 (Homo sapiens (Human), UniProt P35346)
Test: SSTR5 binding assay
Conditions: CHO-K1 membranes expressing cloned human SSTR5
Experimental: The receptor-ligand binding assays of all 5 subtype of SSTRs were performed with membranes isolated from Chinese hamster ovary (CHO)-K1 cells stably expressing the cloned human somatostatin receptors in 96-well format as previous reported.
The stable cell lines for SSTR1-SSTR5 were developed by stably transfecting with DNA for all five SSTRs using Lipofectamine. […] The assay buffer consisted of 50 mM TrisHCl (pH 7.8) with 1 mM EGTA, […] MgCl2, leupeptin (10 μg/mL), pepstatin (10 μg/mL), bacitracin (200 μg/mL), and aprotinin (0.5 μg/mL). CHO-K1 cell membranes, radiolabeled somatostatin, and unlabeled test compounds were resuspended or diluted in this assay buffer. Unlabeled test compounds were examined over a range of concentrations from 0.01 nM to 10,000 nM.
Compounds exemplified were tested in the SSTR5 binding assay.

Chain of SSTR5 (P35346 whole entry): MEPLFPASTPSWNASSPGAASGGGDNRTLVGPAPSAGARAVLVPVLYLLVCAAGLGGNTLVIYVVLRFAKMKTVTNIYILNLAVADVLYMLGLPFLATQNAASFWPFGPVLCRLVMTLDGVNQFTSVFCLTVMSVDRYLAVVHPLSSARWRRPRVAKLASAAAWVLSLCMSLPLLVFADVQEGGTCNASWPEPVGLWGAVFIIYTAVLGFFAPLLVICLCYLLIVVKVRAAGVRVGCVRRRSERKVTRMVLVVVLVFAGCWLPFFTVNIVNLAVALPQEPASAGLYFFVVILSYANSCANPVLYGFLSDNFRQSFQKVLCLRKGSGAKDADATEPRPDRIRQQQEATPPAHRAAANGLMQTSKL

SMILES | IC50
O=C(O)c1ccc(N2CC3(CCN(Cc4cnn(C5CCCCC5)c4-c4cc(F)c(F)cc4F)CC3)OC2=O)cc1 [Example 2-8, 4-(8-{[1-Cyclohexyl-5-(2,4,5-trifluorophenyl)-1H-pyrazol-4-yl]methyl}-2-oxo-1-oxa-3,8-diazaspiro[4.5]dec-3-yl)benzoic acid, TFA salt] | 10.4 nM
CC(C)(C)n1cc(CN2CC3(C2)CN(c2ccc(C(=O)O)cc2)C(=O)O3)c(-c2ccc(F)c(F)c2F)n1 [Example 2-9, 4-(2-{[1-tert-Butyl-3-(2,3,4-trifluorophenyl)-1H-pyrazol-4-yl]methyl}-6-oxo-5-oxa-2,7-diazaspiro[3.4]oct-7-yl)benzoic acid, TFA salt] | 14.9 nM
CC(C)(C)n1cc(CN2CCCC3(CC2)CN(c2ccc(C(=O)O)cc2)C(=O)O3)c(-c2ccc(F)c(F)c2F)n1 (stereo not drawn) [Example 2-11, 4-(8-{[1-tert-Butyl-3-(2,3,4-trifluorophenyl)-1H-pyrazol-4-yl]methyl}-2-oxo-1-oxa-3,8-diazaspiro[4.6]undec-3-yl)benzoic acid, TFA salt] | 207 nM
CCOc1cc(CN2CCCC3(CC2)CN(c2ccc(C(=O)O)cc2)C(=O)O3)cc(OCC)c1-c1ccc(F)cc1 (stereo not drawn) [Example 2-12, 4-{8-[(2,6-Diethoxy-4′-fluorobiphenyl-4-yl)methyl]-2-oxo-1-oxa-3,8-diazaspiro[4.6]undec-3-yl}benzoic acid, TFA salt] | 4.93 nM
CCOc1ccc(-c2ccc(F)c(F)c2)c(CN2CCCC3(CC2)CN(c2ccc(C(=O)O)cc2)C(=O)O3)c1 (stereo not drawn) [Example 2-13, 4-{8-[(4-Ethoxy-3′,4′-difluorobiphenyl-2-yl)methyl]-2-oxo-1-oxa-3,8-diazaspiro[4.6]undec-3-yl}benzoic acid, TFA salt] | 26.1 nM
COc1ccc(-c2nn(C(C)(C)C)cc2CN2CCCC3(CC2)CN(c2ccc(C(=O)O)cc2)C(=O)O3)cc1 (stereo not drawn) [Example 2-14, 4-(8-{[1-tert-Butyl-3-(4-methoxyphenyl)-1H-pyrazol-4-yl]methyl}-2-oxo-1-oxa-3,8-diazaspiro[4.6]undec-3-yl)benzoic acid, TFA salt] | 26.8 nM
COc1ccc(-c2nn(-c3ccccc3)cc2CN2CCCC3(CC2)CN(c2ccc(C(=O)O)cc2)C(=O)O3)cc1 (stereo not drawn) [Example 2-15, 4-(8-{[3-(4-Methoxyphenyl)-1-phenyl-1H-pyrazol-4-yl]methyl}-2-oxo-1-oxa-3,8-diazaspiro[4.6]undec-3-yl)benzoic acid, TFA salt] | 58.7 nM
CCOc1cc(CN2CCC3(C2)CN(c2ccc(C(=O)O)cc2)C(=O)O3)cc(OCC)c1-c1ccc(F)cc1 (stereo not drawn) [Example 2-16, 4-{7-[(2,6-Diethoxy-4′-fluorobiphenyl-4-yl)methyl]-2-oxo-1-oxa-3,7-diazaspiro[4.4]non-3-yl}benzoic acid, TFA salt] | 5.63 nM
CC(C)(C)n1cc(CN2CCC3(C2)CN(c2ccc(C(=O)O)cc2)C(=O)O3)c(-c2ccc(F)c(F)c2F)n1 (stereo not drawn) [Example 2-17, 4-(7-{[1-tert-Butyl-3-(2,3,4-trifluorophenyl)-1H-pyrazol-4-yl]methyl}-2-oxo-1-oxa-3,7-diazaspiro[4.4]non-3-yl)benzoic acid, TFA salt] | 32.7 nM

Other lines, results leading:

IC50 | SMILES
1.46 nM | CCOc1cc(CN2CCC3(CC2)CN(c2cncc(O)c2)C(=O)O3)cc(OCC)c1-c1ccc(F)cc1 [Example 3-2, 8-[(2,6-Diethoxy-4′-fluorobiphenyl-4-yl)methyl]-3-(5-hydroxypyridin-3-yl)-1-oxa-3,8-diazaspiro[4.5]decan-2-one, TFA salt]
229 nM | CCOc1cc(CN2CCC3(CC2)CN(c2ccccc2C(=O)O)C(=O)O3)cc(OCC)c1-c1ccc(F)cc1 [Example 3-3, 2-{8-[(2,6-Diethoxy-4′-fluorobiphenyl-4-yl)methyl]-2-oxo-1-oxa-3,8-diazaspiro[4.5]dec-3-yl}benzoic acid, TFA salt]
1.4 nM | CCOc1cc(CN2CCC3(CC2)CN(c2ccc(C(=O)O)nc2)C(=O)O3)cc(OCC)c1-c1ccc(F)cc1 [Example 3-4, 5-{8-[(2,6-Diethoxy-4′-fluorobiphenyl-4-yl)methyl]-2-oxo-1-oxa-3,8-diazaspiro[4.5]dec-3-yl}pyridine-2-carboxylic acid, TFA salt]
2.12 nM | CCOc1cc(CN2CCC3(CC2)CN(c2cncc(C(=O)O)c2)C(=O)O3)cc(OCC)c1-c1ccc(F)cc1 [Example 3-5, 5-{8-[(2,6-Diethoxy-4′-fluorobiphenyl-4-yl)methyl]-2-oxo-1-oxa-3,8-diazaspiro[4.5]dec-3-yl}pyridine-3-carboxylic acid, TFA salt]
9.47 nM | CCOc1cc(CN2CCC3(CC2)CN(c2ccc(C(C)(C)C(=O)O)cc2)C(=O)O3)cc(OCC)c1-c1ccc(F)cc1 [Example 3-6, 2-(4-{8-[(2,6-Diethoxy-4′-fluorobiphenyl-4-yl)methyl]-2-oxo-1-oxa-3,8-diazaspiro[4.5]dec-3-yl}phenyl)-2-methylpropanoic acid, TFA salt]
7.06 nM | CCOc1cc(CN2CCC3(CC2)CN(c2ccc(-c4nn[nH]n4)cc2OC)C(=O)O3)cc(OCC)c1-c1ccc(F)cc1 [Example 3-7, 8-[(2,6-Diethoxy-4′-fluorobiphenyl-4-yl)methyl]-3-[2-methoxy-4-(2H-tetrazol-5-yl)phenyl]-1-oxa-3,8-diazaspiro[4.5]decan-2-one, TFA salt]
1.42 nM | CCOc1cc(CN2CCC3(CC2)CN(c2ccc(C(=O)O)c(C)c2)C(=O)O3)cc(OCC)c1-c1ccc(F)cc1 [Example 3-8, 4-{8-[(2,6-Diethoxy-4′-fluorobiphenyl-4-yl)methyl]-2-oxo-1-oxa-3,8-diazaspiro[4.5]dec-3-yl}-2-methylbenzoic acid, TFA salt]
1.21 nM | CCOc1cc(CN2CCC3(CC2)CN(c2ccc(C(=O)O)c(Cl)c2)C(=O)O3)cc(OCC)c1-c1ccc(F)cc1 [Example 3-9, 2-Chloro-4-{8-[(2,6-diethoxy-4′-fluorobiphenyl-4-yl)methyl]-2-oxo-1-oxa-3,8-diazaspiro[4.5]dec-3-yl}benzoic acid, TFA salt]
8.41 nM | CCOc1cc(CN2CCC3(CC2)CN(c2ccc(C4(C(=O)O)CC4)cc2)C(=O)O3)cc(OCC)c1-c1ccc(F)cc1 [Example 3-10, 1-(4-{8-[(2,6-Diethoxy-4′-fluorobiphenyl-4-yl)methyl]-2-oxo-1-oxa-3,8-diazaspiro[4.5]dec-3-yl}phenyl)cyclopropanecarboxylic acid, TFA salt]
0.941 nM | CCOc1cc(CN2CCC3(CC2)CN(c2ccc(C(=O)O)cn2)C(=O)O3)cc(OCC)c1-c1ccc(F)cc1 [Example 3-11, 6-{8-[(2,6-Diethoxy-4′-fluorobiphenyl-4-yl)methyl]-2-oxo-1-oxa-3,8-diazaspiro[4.5]dec-3-yl}pyridine-3-carboxylic acid, TFA salt]
0.323 nM | CCOc1cc(CN2CCC3(CC2)CN(c2ccc(-c4nn[nH]n4)cc2)C(=O)O3)cc(OCC)c1-c1ccc(F)cc1 [Example 3-12, 8-[(2,6-Diethoxy-4′-fluorobiphenyl-4-yl)methyl]-3-[4-(2H-tetrazol-5-yl)phenyl]-1-oxa-3,8-diazaspiro[4.5]decan-2-one, TFA salt]
3.8 nM | CCOc1cc(CN2CCC3(CC2)CN(c2ccc(O)nc2)C(=O)O3)cc(OCC)c1-c1ccc(F)cc1 [Example 3-13, 8-[(2,6-Diethoxy-4-fluorobiphenyl-4-yl)methyl]-3-(6-hydroxypyridin-3-yl)-1-oxa-3,8-diazaspiro[4.5]decan-2-one, TFA salt]

Reference: patent US8742110B2, “Spiroxazolidinone compounds” (Merck Sharp & Dohme Corp., priority 2010, dated 2014)
